Measurements reported in US20230286978A1, “INDAZOLE DERIVATIVES AS INHIBITORS OF SARM1” (Disarm Therapeutics, Inc., priority 2020, published 2023).
pIC50: −log10 of the molar value.

Biological target: SARM1 (Homo sapiens (Human), UniProt Q6SZW1)
Assay: ARM-SAM-TIR SARM1 IC50 assay (NADase activity, RapidFire mass spectrometry)
Type: biochemical
Details: ARM-SAM-TIR lysate 5 µg/mL, 2 h pre-incubation with compound, 5 µM NAD+, 2 hr at room temperature
From the text: This Example describes an assay of ARM-SAM-TIR NADase activity and use of this assay to measure the efficacy of compounds of Formula I/II to block SARM1 mediated NAD+ cleavage. This assay was optimized in such a way as to characterize the efficacy of the compounds in Formula I/IIto inhibit SARM1 activity and to calculate an IC50 value for each compound. This assay makes use of […], which encompasses the ARM, SAM and TIR domains. […] The next day, the cells were transfected with 15 μg ARM-SAM-TIR expression plasmid, SEQ ID NO: 1. The cultures were supplemented with 1 mM NR at time of transfection to minimize toxicity from ARM-SAM-TIR overexpression. Forty-eight hours after transfection, cells were harvested, pelleted by centrifugation at 1,000 rpm (Sorvall ST 16R centrifuge, Thermo Fisher), and washed once with cold PBS (0.01 M phosphate buffered saline NaCl 0.138 M; KCl 0.0027 M; pH 7.4). The cells were resuspended in PBS with protease inhibitors (cOmpleteTM protease inhibitor cocktail, Roche product # 11873580001) and cell lysates were prepared by sonication (Branson Sonifer 450, output = 3, 20 episodes of stroke). The lysates were centrifuged (12,000×g for 10 min at 4° C.) to remove cell debris and the supernatants (containing ARM-SAM-TIR protein) were stored at -80° C. for later use in the in vitro ARM-SAM-TIR NADase assay (see below). Protein concentration was determined by the Bicinchoninic (BCA) method and used to normalize lysate concentrations. The enzymatic assay was performed in a 384-well polypropylene plate in Dulbecco's PBS buffer in a final assay volume of 20 μL. […] The reaction was initiated by addition of 5 μM final assay concentration of NAD+ as substrate. After a 2 hr room temperature incubation, the reaction was terminated with 40 μL of stop solution of 7.5% trichloroactetic acid in acetonitrile. The NAD+ and ADPR concentrations were analyzed by a RapidFire High Throughput Mass Spectrometry System (Agilent Technologies, Santa Clara, CA) using an API4000 triple quadrupole mass spectrometer (AB Sciex Framingham, MA).

SARM1, sequence (Q6SZW1 other isoform, or with tags, fused parts or gaps): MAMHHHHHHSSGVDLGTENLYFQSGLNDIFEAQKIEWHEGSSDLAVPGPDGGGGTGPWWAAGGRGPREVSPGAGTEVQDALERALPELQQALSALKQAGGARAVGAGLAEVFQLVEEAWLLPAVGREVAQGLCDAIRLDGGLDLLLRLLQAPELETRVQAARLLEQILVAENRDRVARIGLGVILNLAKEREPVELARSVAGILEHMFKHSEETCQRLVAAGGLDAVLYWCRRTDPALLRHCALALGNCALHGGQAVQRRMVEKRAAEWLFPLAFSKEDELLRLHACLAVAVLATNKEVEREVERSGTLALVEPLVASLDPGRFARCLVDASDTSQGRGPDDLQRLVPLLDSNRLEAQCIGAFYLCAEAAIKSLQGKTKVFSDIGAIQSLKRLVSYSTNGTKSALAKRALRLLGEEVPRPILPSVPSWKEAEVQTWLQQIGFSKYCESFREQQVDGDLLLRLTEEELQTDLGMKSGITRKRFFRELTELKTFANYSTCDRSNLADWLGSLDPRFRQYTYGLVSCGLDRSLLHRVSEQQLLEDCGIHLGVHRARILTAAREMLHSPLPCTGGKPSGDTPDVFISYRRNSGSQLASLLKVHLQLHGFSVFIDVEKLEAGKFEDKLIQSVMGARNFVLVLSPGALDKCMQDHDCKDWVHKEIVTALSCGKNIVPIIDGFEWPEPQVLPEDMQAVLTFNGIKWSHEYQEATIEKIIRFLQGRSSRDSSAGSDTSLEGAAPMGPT

Row | Structure (SMILES) | pIC50
1 | O=C(NCc1ccc(Cl)s1)c1cccc2c(-c3ccncc3F)n[nH]c12 [Example 13] | 6.00 to 7.00
2 | O=C(NCc1ccc(Cl)nc1)c1cccc2c(-c3ccncc3)n[nH]c12 [Example 9] | 6.00 to 7.00
3 | O=C(NCc1ccccc1)c1ccnc2c(-c3ccncc3)n[nH]c12 [Example 7] | 5.30 to 6.00
4 | O=C(NCc1ccccc1)c1cncc2c(-c3ccncc3)n[nH]c12 [Example 6] | 6.00 to 7.00
5 | O=C(NCc1ccc(Cl)cc1)c1cncc2c(-c3ccncc3)n[nH]c12 [Example 4] | > 7.00
6 | O=C(NCc1ccc(Cl)cc1)c1cccc2c(-c3ccncc3)n[nH]c12 [Example 1] | > 7.00
7 | O=C(NCc1ccc(Cl)cc1)c1cccc2c(-c3ccncc3F)n[nH]c12 [Example 10] | > 7.00
8 | C[C@H](NC(=O)c1cccc2c(-c3ccncc3)n[nH]c12)c1ccc(Cl)cc1 [Example 8] | < 5.00
9 | O=C(NCc1ccc(Cl)c(F)c1)c1cccc2c(-c3ccncc3F)n[nH]c12 [Example 12] | > 7.00
10 | O=C(NCc1ccc(Cl)cc1)c1ccnc2c(-c3ccncc3)n[nH]c12 [Example 5] | > 7.00
11 | O=C(NCc1ccccc1)c1cccc2c(-c3ccncc3)n[nH]c12 [Example 2] | 6.00 to 7.00
